The target in one test is human cathepsin K (UniProt P43236). The experiment in a line: Cathepsin K Assay (hrbCat K). It is filed as biochemical. Particulars: Z-Leu-Arg-AMC substrate, pH 5.5, 15 min preincubation; read-out: hrbCat K (IP (nM)). On the procedure:
Cathepsin K Assay (hrbCat K)
(§1) Then 0.5 μL of DMSO from each dilution were added to 18.75 μL of assay buffer (MES, 50 mM (pH 5.5); EDTA, 2.5 mM; DTT, 2.5 mM and 10% DMSO) containing human cathepsin K (0.4 nM) in assay buffer solution. The assay solutions were mixed for 5-10 seconds on a shaker plate and incubated for 15 minutes at room temperature. Z-Leu-Arg-AMC (8 μM) in 6.25 μL of assay buffer was added to the assay solutions. Hydrolysis of the coumarin leaving group (AMC) was followed by spectrofluorometry (Exλ=360 nm; Emλ=460 nm) for 30 minutes. Percent of inhibition were calculated by fitting experimental values to standard mathematical model for dose response curve.

A further test has as its target T1, human cathepsin F (Homo sapiens, UniProt Q9UBX1).
T1 sequence (Q9UBX1 271-484): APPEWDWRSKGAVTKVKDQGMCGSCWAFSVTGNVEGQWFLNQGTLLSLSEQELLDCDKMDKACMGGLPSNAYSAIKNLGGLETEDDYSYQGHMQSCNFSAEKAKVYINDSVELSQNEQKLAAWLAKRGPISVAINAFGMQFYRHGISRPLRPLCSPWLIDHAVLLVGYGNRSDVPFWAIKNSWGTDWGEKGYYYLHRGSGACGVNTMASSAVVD
Kind of test: Cathepsin F assay (hCat F). The following applies: Z-Phe-Arg-AMC substrate, pH 5.5, 15 min preincubation; read-out: hCat F (IP (nM)). It is filed as biochemical. Here is the method:
Cathepsin F assay (hCat F)
as §1, with “Serial dilutions (1/3) from 500 μM down to 0.025 μM of test compounds were prepared in dimethyl sulfoxide (DMSO). Then” for “Then”, “F (10” for “K (0.4”, “Z-Phe-Arg-AMC” for “Z-Leu-Arg-AMC”, “20” for “30”

SMILES strings stand for the structures. Where only a bound is given, the exact number is not on record here.

As for `N#CC1(NC(=O)[C@@H]2CCCC[C@H]2c2nc(-c3ccc(F)cc3)oc2-c2ccc(N3CCS(=O)(=O)CC3)cc2)CC1` [Example 10, (1R,2R)-N-(1-cyanocyclopropyl)-2-(5-(4-(1,1-dioxidothiomorpholino)phenyl)-2-(4-fluorophenyl)oxazol-4-yl)cyclohexanecarboxamide], the figures for the IC50 at human cathepsin K and on human cathepsin F were 2.5 nM and 1110 nM, respectively.

In the case of `N#CCNC(=O)[C@@H]1CCCC[C@H]1c1nc(C2CC2)sc1-c1ccc(N2CCS(=O)(=O)CC2)cc1` [Example 18, (1R,2R)-N-(cyanomethyl)-2-(2-cyclopropyl-5-(4-(1,1-dioxidothiomorpho-lino)phenyl)thiazol-4-yl)cyclohexane-carboxamide], the results for the IC50 at human cathepsin K and at human cathepsin F were 1.2 nM and 564 nM, respectively.

As for `N#CC1(NC(=O)[C@@H]2CC3CC3C[C@H]2c2nc(-c3cncc(F)c3)sc2-c2ccc(N3CCS(=O)(=O)CC3)cc2)CC1` (single isomer, unassigned) [Compound 3, (1S or 1R,3R,4R,6R or 6S)-N-(1-Cyanocyclopropyl)-4-(5-(4-(1,1-dioxidothiomorpholino)phenyl)-2-(5-fluoropyridin-3-yl)thiazol-4-yl)bicyclo[4.1.0]heptane-3-carboxamide], the IC50 on human cathepsin K was found to be 0.7 nM; on human cathepsin F, 225 nM.

Take `CCC(C#N)NC(=O)[C@@H]1CCCC[C@H]1c1nc(-c2ccc(F)cn2)sc1-c1ccc(N2CCS(=O)(=O)CC2)cc1` (single isomer, unassigned) [Example 192, (1R,2R)-N-((R or S)-1-cyanopropyl)-2-(5-(4-(1,1-dioxidothiomorpho-lino)phenyl)-2-(5-fluoropyridin-2-yl)thiazol-4-yl)cyclohexane-carboxamide]: the IC50 was found to be 0.4 nM on human cathepsin K and 103 nM at human cathepsin F.

Turning to `N#CC1(NC(=O)[C@@H]2CCCC[C@H]2c2nc(N3CC(F)(F)C3)sc2-c2ccc(N3CCS(=O)(=O)CC3)cc2)CC1` [Example 117, (1R,2R)-N-(1-cyanocyclopropyl)-2-(2-(3,3-difluoroazetidin-1-yl)-5-(4-(1,1-dioxidothiomorpho-lino)phenyl)thiazol-4-yl)cyclohexane-carboxamide], the figures for the IC50 on human cathepsin K and on human cathepsin F were 8 nM and at least 10000 nM, respectively.

On to `N#CC1(NC(=O)[C@@H]2CCCC[C@H]2c2nc(-c3ncc(F)cc3F)sc2-c2ccc(N3CCS(=O)(=O)CC3)cc2)CC1` [Example 65, (1R,2R)-N-(1-cyanocyclopropyl)-2-(2-(3,5-difluoropyridin-2-yl)-5-(4-(1,1-dioxidothiomorpho-lino)phenyl)thiazol-4-yl)cyclohexane-carboxamide], for which the IC50 at human cathepsin K came to 7 nM; at human cathepsin F, 1000 nM.

For the molecule `N#CC1(NC(=O)[C@@H]2CCCC[C@H]2c2nc(N3CCO[C@H](C(F)(F)F)C3)sc2-c2ccc(N3CCS(=O)(=O)CC3)cc2)CC1` [Example 145, (1R,2R)-N-(1-cyanocyclopropyl)-2-(5-(4-(1,1-dioxidothiomorpho-lino)phenyl)-2-((S)-2-(trifluoromethyl)morpholino)thiazol-4-yl)cyclohexane-carboxamide], the IC50 was 4.3 nM on human cathepsin K and 7050 nM on human cathepsin F.

Take `CC(C)(O)C(C#N)NC(=O)[C@@H]1CCCC[C@H]1c1nc(-c2ccc(F)cn2)sc1-c1ccc(N2CCS(=O)(=O)CC2)cc1` (single isomer, unassigned) [Example 227, (1R,2R)-N-((R or S)-1-cyano-2-hydroxy-2-methylpropyl)-2-(5-(4-(1,1-dioxidothiomorpho-lino)phenyl)-2-(5-fluoropyridin-2-yl)thiazol-4-yl)cyclohexane-carboxamide]: the IC50 at human cathepsin K is 59.5 nM.

On to `CC(C)[C@@H](C#N)NC(=O)[C@@H]1C[C@@H](F)CC[C@H]1c1nc(C2CC(F)(F)C2)sc1-c1ccc(N2CCS(=O)(=O)CC2)cc1` [Example 213], for which the IC50 at human cathepsin K was 7.8 nM; on human cathepsin F, at least 10000 nM.

On to `C[C@@H](C#N)NC(=O)[C@@H]1CCCC[C@H]1c1nc(C(O)C(F)(F)F)sc1-c1ccc(N2CCS(=O)(=O)CC2)cc1` (mixture of isomers) [Example 229, (1R,2R)-N-((S)-1-cyanoethyl)-2-(5-(4-(1,1-dioxidothiomorpho-lino)phenyl)-2-((R and S)-2,2,2-trifluoro-1-hydroxyethyl)thia-zol-4-yl)cyclohexane-carboxamide], for which the IC50 was 2.6 nM at human cathepsin K and 757 nM on human cathepsin F.

Consider `C[C@@H](C#N)NC(=O)[C@@H]1C[C@@H](F)CC[C@H]1c1nc(C(F)F)sc1-c1ccc(N2CCS(=O)(=O)CC2)cc1` [Example 220, (1R,2R,5S)-N-((S)-1-cyanoethyl)-2-(2-(difluoromethyl)-5-(4-(1,1-dioxidothiomorpho-lino)phenyl)thiazol-4-yl)-5-fluorocyclohexane-carboxamide], for which the IC50 amounted to 1.6 nM on human cathepsin K and 2090 nM at human cathepsin F.

Turning to `N#CC1(NC(=O)[C@@H]2CCCC[C@H]2c2nc(-c3cncc(F)c3)sc2-c2ccc(N3CCS(=O)(=O)C4(CC4)C3)cc2)CC1` [Example 74, (1R,2R)-N-(1-cyanocyclopropyl)-2-(5-(4-(4,4-dioxido-4-thia-7-azaspiro[2.5]octan-7-yl)phenyl)-2-(5-fluoropyridin-3-yl)thiazol-4-yl)cyclohexane-carboxamide], the IC50 at human cathepsin K turned out to be 1.9 nM; on human cathepsin F it was 1370 nM.

On to `N#CC1(NC(=O)[C@@H]2CCC(F)(F)C[C@H]2c2nc(-c3cncc(F)c3)sc2-c2ccc(N3CCS(=O)(=O)CC3)cc2)CC1` [Example 108, (1R,2R)-N-(1-cyanocyclopropyl)-2-(5-(4-(1,1-dioxidothiomorpho-lino)phenyl)-2-(5-fluoropyridin-3-yl)thiazol-4-yl)-4,4-difluorocyclohexane-carboxamide], for which the IC50 at human cathepsin K was 1.7 nM.

On to `Cc1ncc(-c2nc([C@@H]3CCCC[C@H]3C(=O)NC3(C#N)CC3)c(-c3ccc(N4CCS(=O)(=O)CC4)cc3)s2)s1` [Example 52, (1R,2R)-N-(1-cyanocyclopropyl)-2-(5-(4-(1,1-dioxidothiomorpho-lino)phenyl)-2′-methyl-[2,5′-bithiazol]-4-yl)cyclohexane-carboxamide], for which the IC50 on human cathepsin K came to 2.3 nM.

Take `N#CC1(NC(=O)[C@@H]2CCC(F)(F)C[C@H]2c2nc(-c3cncc(F)c3)sc2-c2ccc(N3CCS(=O)(=O)CC3)cc2)CC1` [Example 218, (1R,2R)-N-(1-cyanocyclopropyl)-2-(5-(4-(1,1-dioxidothiomorpho-lino)phenyl)-2-(5-fluoropyridin-3-yl)thiazol-4-yl)-4,4-difluorocyclohexane-carboxamide]: the IC50 on human cathepsin K was 4.2 nM.

As to `CC(C)(C#N)NC(=O)[C@@H]1C[C@@H](F)CC[C@H]1c1nc(-c2ccc(F)cn2)sc1-c1ccc(N2CCS(=O)(=O)CC2)cc1` [Example 140, (1R,2R,5S)-N-(2-cyanopropan-2-yl)-2-(5-(4-(1,1-dioxidothiomorpho-lino)phenyl)-2-(5-fluoropyridin-2-yl)thiazol-4-yl)-5-fluorocyclohexane-carboxamide], the IC50 on human cathepsin K stood at 66.7 nM.

As to `CC(C)(O)C(C#N)NC(=O)[C@@H]1CCCC[C@H]1c1nc(-c2ccc(F)cn2)sc1-c1ccc(N2CCS(=O)(=O)CC2)cc1` (single isomer, unassigned) [Example 226, (1R,2R)-N-((S or R)-1-cyano-2-hydroxy-2-methylpropyl)-2-(5-(4-(1,1-dioxidothiomorpho-lino)phenyl)-2-(5-fluoropyridin-2-yl)thiazol-4-yl)cyclohexane-carboxamide], the IC50 on human cathepsin F is at least 10000 nM.

With `CC1CC1(C#N)NC(=O)[C@@H]1CCCC[C@H]1c1nc(-c2ccc(F)cn2)sc1-c1ccc(N2CCS(=O)(=O)CC2)cc1` (single isomer, unassigned) [Example 203, (1R,2R)-N-((1R,2S or 1R,2R or 1S,2S or 1S,2R)-1-cyano-2-methylcyclopropyl)-2-(5-(4-(1,1-dioxidothiomorpho-lino)phenyl)-2-(5-fluoropyridin-2-yl)thiazol-4-yl)cyclohexane-carboxamide], on human cathepsin K, the IC50 was found to be 161 nM.

For the molecule `N#CC1(NC(=O)[C@@H]2C[C@@H](F)CC[C@H]2c2nc(C3CC(F)C3)sc2-c2ccc(N3CCS(=O)(=O)CC3)cc2)CC1` (single isomer, unassigned) [Example 235, (1R,2R,5S)-N-(1-cyanocyclopropyl)-2-(5-(4-(1,1-dioxidothiomorpho-lino)phenyl)-2-((1R,3R or 1S,3S)-3-fluorocyclobutyl)thiazol-4-yl)-5-fluorocyclohexane-carboxamide], at human cathepsin K, the IC50 is 4.2 nM.

(Values after US9573913B2, “Cathepsin cysteine protease inhibitors” (Merck Sharp & Dohme Corp., priority 2013, dated 2017).)
